Assay results published in PubChem BioAssay AID2060625 (Molecular Pharmacology Branch, DTP, NCI, 2025).
pIC50: −log10 of the molar value. Where “and” joins values, the source holds several entries; their conditions need not be identical. Identical values can stand only once.

System: 186277-243-T-J2-PDC spheroids with HUVEC/MSC, viability
Assay: Anticancer human tumor 186277-243-T-J2-PDC patient-derived colon adenocarcinoma cell line growth inhibition [CLK]
Details: for viability, T/C: stronger effect = lower value; for pIC50: curve of compound
Source text: A high-throughput screen of multi-cell type tumor spheroids was designed to identify active combinations of […] and targeted small molecules. Complex spheroids include a stromal component modeled by human endothelial cells (HUVEC) and fibroblasts modeled by human mesenchymal stem cells (MSCs). The concentration ranges selected for each drug and investigational agent were based upon clinically achievable concentrations if the clinical Cmax of the agent was known.
Compounds. The drugs and investigational agents: cirtuvivint (SM08502; NSC835563), CC-671 (NSC850746), vemurafenib (NSC761431), tapotoclax (NSC804041), sotorasib (NSC818433), adagrasib (NSC831453), MRTX-1133 (NSC836407), BAY2416964 (NSC825713), copanlisib (NSC816437), inavolisib (NSC800729), abemaciclib (NSC768073), osimertinib (NSC779217), entinostat (NSC756642), eltanexor (KPT-8602, NSC794443), venetoclax (NSC766270), ceralasertib (NSC777638), bortezomib (NSC756655), olaparib (NSC753686), talazoparib (NSC767125), alisertib (NSC759677), peposertib (NSC802822), gemcitabine (NSC613327), 5-fluorouracil (NSC19893), SN-38 (NSC673596), oxaliplatin (NSC266046), paclitaxel (NSC125973), and doxorubicin (NSC123127), were obtained from the National Cancer Institute (NCI) Developmental Therapeutics Program Chemical Repository. The FDA-approved anticancer drug set is available from the Developmental Therapeutics Program at https://dtp.cancer.gov/organization/dscb/obtaining/available plates.htm. […] The stock solutions were prepared in dimethyl sulfoxide (DMSO, Sigma-Aldrich, St. Louis, MO, cat. D2650), except for the platinum complexes which were prepared in saline (Quality Biological, Gaithersburg, MD, cat. 114-055-101), at 800-fold the tested concentration and stored at -70 degrees C prior to their use. All drugs and investigational agents were tested over a range starting from a high concentration at or near the clinical Cmax and decreasing in half-log increments. If the clinical Cmax for an agent had not been determined, the highest concentration tested was 10 microM.
Cell Culture. All cells were maintained in an incubator at 37 degrees C and 5% CO2 with 95% humidity. The PDC lines were cultured according to standard operating procedures established by the NCI PDMR. Briefly, all PDCs were thawed and cultured in Matrigel-coated flasks prepared with a working solution of 1X Ham's F-12 nutrient mix, without supplementation (Invitrogen, Waltham, MA, cat. 11765054), 100 U/mL penicillin-streptomycin (Invitrogen, cat. 15140122), and 2.5% Matrigel (Corning Inc., Corning, NY, cat. 354248) for the first three passages. The 947758-054-R-J2-PDC line was cultured in 6B/Colon 1A media, which includes advanced DMEM/F-12 (Thermo Fisher Scientific, cat. 12634028), 10 mM HEPES (Thermo Fisher Scientific, cat. 15630080), 1X GlutaMAX supplement (Thermo Fisher Scientific, cat. 35050061), 0.1 mg/mL primocin (InvivoGen, cat. ant-pm-2), 10% defined fetal bovine serum, heat inactivated (HyClone Laboratories Inc., cat. SH30070.03HI), 1.25 mM N-Acetyl-L-cysteine (Sigma-Aldrich, cat. A9165), 10 mM nicotinamide (Sigma-Aldrich, cat. N0636), 1X B-27 supplement (Thermo Fisher Scientific, cat. 17504044), 1X N-2 supplement (Thermo Fisher Scientific, cat. 17502048), and 10 microM Y-27632 dihydrochloride (Tocris Bioscience, cat. 1254). The 876862-298-R-J1-PDC was cultured in 6E media, which includes all 6B/Colon 1A media components plus 50% L-WRN conditioned media (ATCC, cat. CRL-3276), 50 ng/mL recombinant human EGF recombinant protein (hEGF; Thermo Fisher Scientific, cat. PHG0311), 10 ng/mL recombinant human fibroblast growth factor 10 (hGFG-10; PeproTech, cat. 100-26), 1 ng/mL recombinant human fibroblast growth factor 2 (hFGF-2; PeproTech, cat. 100-18B), and 1 µM prostaglandin E2 (PGE2; Tocris, cat. 2296). The 227483-062-R1-J1-PDC line was cultured in Panc media, containing all 6E components except hFGF-2, with the addition of 500 nM SB-431542 (Selleckchem, cat. S1067) and 10 nM gastrin (Tocris, cat. 3006). […]
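Further: compound exposure lasted seven days before readout.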
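Wherever viability, T/C is given: 100% = DMSO vehicle control wells.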

Compound	viability, T/C (compound 0.0316 µM)	viability, T/C (compound 0.1 µM)	viability, T/C (compound 0.316 µM)	viability, T/C (compound 1 µM)	viability, T/C (compound 3.16 µM)	viability, T/C (compound 10 µM)	pIC50	viability, T/C (compound 0.000949 µM)	viability, T/C (compound 0.003 µM)	viability, T/C (compound 0.00949 µM)	viability, T/C (compound 0.03 µM)	viability, T/C (compound 0.0949 µM)	viability, T/C (compound 0.3 µM)	viability, T/C (compound 0.00316 µM)	viability, T/C (compound 0.01 µM)	viability, T/C (compound 0.000316 µM)	viability, T/C (compound 0.001 µM)	viability, T/C (compound 0.949 µM)	viability, T/C (compound 3 µM)
C#Cc1c(F)ccc2cc(O)cc(-c3ncc4c(N5CC6CCC(C5)N6)nc(OCC56CCCN5CC(F)C6)nc4c3F)c12 (stereo not drawn)	95.5% and 101%	73.5% and 89.7%	69.2% and 120%	32% and 60%	20.9% and 34.8%	14.7% and 21.7%	6.27 and 5.84	–	–	–	–	–	–	–	–	–	–	–	–
C=C(F)C(=O)N1CCN(c2nc(OCC3CCCN3C)nc3c2CCN(c2cccc4cccc(Cl)c24)C3)CC1CC#N (stereo not drawn)	79% and 94.1%	82.2% and 88.8%	93% and 82.2%	83.4% and 89.4%	101% and 109%	–	5.28 and 5.12	–	–	–	–	–	–	–	–	–	–	–	–
C=CC(=O)N1CCN(c2nc(=O)n(-c3c(C)ccnc3C(C)C)c3nc(-c4c(O)cccc4F)c(F)cc23)C(C)C1 (stereo not drawn)	103% and 87.6%	91.4% and 96.3%	97.5% and 90.2%	80.2% and 105%	107% and 105%	95.2% and 98.2%	< 5.00	–	–	–	–	–	–	–	–	–	–	–	–
C=CC(=O)Nc1cc(Nc2nccc(-c3cn(C)c4ccccc34)n2)c(OC)cc1N(C)CCN(C)C	–	–	–	–	–	–	< 6.52	84.2% and 100%	98.2% and 101%	84.3% and 112%	82.3% and 97.6%	83.6% and 116%	87.2% and 95.1%	–	–	–	–	–	–
CC(=O)O[C@H]1C(=O)[C@@]2(C)[C@H]([C@H](OC(=O)c3ccccc3)[C@]3(O)C[C@H](OC(=O)[C@H](O)[C@@H](NC(=O)c4ccccc4)c4ccccc4)C(C)=C1C3(C)C)[C@]1(OC(C)=O)CO[C@@H]1C[C@@H]2O	25.2% and 16.5%	12.1% and 8.36%	11.6% and 7.98%	10.8% and 6.74%	8.76% and 8.77%	10.4% and 7.1%	> 7.50	–	–	–	–	–	–	–	–	–	–	–	–
CC(C)CC(NC(=O)C(Cc1ccccc1)NC(=O)c1cnccn1)B(O)O (stereo not drawn)	–	–	–	–	–	–	8.35 and 8.49	95.9% and 106%	75.5% and 53.2%	0.47% and 2.37%	0.24% and 0.94%	0.79% and 3.7%	0.71% and 0.52%	–	–	–	–	–	–
CC(CO)NC(=O)c1cc(-c2ccc(Cl)cc2)nn(-c2cnn(C)c2)c1=O (stereo not drawn)	84.6% and 120%	80.5% and 91.3%	95.9% and 96.8%	81% and 88.2%	87.7% and 101%	115% and 117%	< 5.00	–	–	–	–	–	–	–	–	–	–	–	–
CC(Nc1ccc2c(c1)OCCn1cc(N3C(=O)OCC3C(F)F)nc1-2)C(N)=O (stereo not drawn)	96.2%	103% and 104%	80% and 80.6%	65.2% and 58.1%	58.7% and 53.7%	49.9% and 37.6%	< 5.00 and 5.62	–	–	–	–	–	–	–	–	–	–	–	–
CC1(C)CCC(CN2CCN(c3ccc(C(=O)NS(=O)(=O)c4ccc(NCC5CCOCC5)c([N+](=O)[O-])c4)c(Oc4cnc5[nH]ccc5c4)c3)CC2)=C(c2ccc(Cl)cc2)C1	94.3% and 88.2%	85.8% and 90.3%	97% and 104%	86.5% and 99.3%	106% and 110%	10.5% and 10%	5.24 and 5.23	–	–	–	–	–	–	–	–	–	–	–	–
CC1COCCN1c1cc(C2(S(C)(=N)=O)CC2)nc(-c2ccnc3[nH]ccc23)n1 (stereo not drawn)	103% and 82.6%	85.5% and 88%	96.9% and 95%	122% and 103%	41.2% and 34%	15% and 13.5%	5.57 and 5.64	–	–	–	–	–	–	–	–	–	–	–	–
CCCS(=O)(=O)Nc1ccc(F)c(C(=O)c2c[nH]c3ncc(-c4ccc(Cl)cc4)cc23)c1F	97.7% and 105%	87.2% and 89.4%	113% and 109%	104% and 88.5%	120% and 94%	82.3% and 88%	< 5.00	–	–	–	–	–	–	–	–	–	–	–	–
CCN1CCN(Cc2ccc(Nc3ncc(F)c(-c4cc(F)c5nc(C)n(C(C)C)c5c4)n3)nc2)CC1	103% and 120%	121% and 116%	120% and 131%	117% and 107%	–	–	< 6.00	–	–	–	–	–	–	81% and 102%	94.2% and 98.3%	–	–	–	–
CCc1c2c(nc3ccc(O)cc13)-c1cc3c(c(=O)n1C2)COC(=O)[C@]3(O)CC	66.4% and 56.8%	30.3% and 24.5%	26% and 21.8%	21.6% and 16.9%	–	–	7.27 and 7.46	–	–	–	–	–	–	115% and 111%	95.3% and 79.7%	–	–	–	–
COC1C=CCC(C)C(C)S(=O)(=O)NC(=O)c2ccc3c(c2)N(CC2CCC21)CC1(CCCc2cc(Cl)ccc21)CO3 (stereo not drawn)	83.5% and 117%	90% and 103%	88.2% and 101%	85.8% and 84.1%	82.9% and 69.2%	3.82% and 5.57%	5.29 and 5.38	–	–	–	–	–	–	–	–	–	–	–	–
COc1c(OCCCN2CCOCC2)ccc2c3n(c(=NC(=O)c4cnc(N)nc4)nc12)CCN3	63.3% and 52.9%	40% and 23.9%	23.7% and 13.1%	15.5% and 8.53%	–	–	7.20 and 7.46	–	–	–	–	–	–	84.7% and 90.2%	91.5% and 103%	–	–	–	–
COc1cccc2c1C(=O)c1c(O)c3c(c(O)c1C2=O)CC(O)(C(=O)CO)CC3OC1CC(N)C(O)C(C)O1 (stereo not drawn)	127%	76.1%	20.6%	0.4%	1.81%	2.31%	6.77	–	–	–	–	–	–	–	–	–	–	–	–
Cn1ncnc1[C@H]1c2n[nH]c(=O)c3cc(F)cc(c23)N[C@@H]1c1ccc(F)cc1	115% and 127%	121% and 134%	–	–	–	–	< 7.00	–	–	–	–	–	–	109% and 110%	100% and 103%	99.8% and 98.2%	73.1% and 89.7%	–	–
NC(=O)C(=Cn1cnc(-c2cc(C(F)(F)F)cc(C(F)(F)F)c2)n1)c1cncnc1	–	–	–	–	–	–	6.73 and 6.76	–	–	88.2% and 88.1%	84.5% and 87.8%	113% and 107%	18.2% and 10.8%	–	–	–	–	4.07% and 5.27%	1.81% and 3.46%
Nc1ccccc1NC(=O)c1ccc(CNC(=O)OCc2cccnc2)cc1	100% and 92.4%	88.7% and 92%	85.5% and 84.9%	110% and 100%	76.6% and 48%	23.2% and 13.7%	5.25 and 5.52	–	–	–	–	–	–	–	–	–	–	–	–
Nc1ccn(C2OC(CO)C(O)C2(F)F)c(=O)n1 (stereo not drawn)	15.6% and 11.9%	15.7% and 12.4%	15.3% and 12.4%	17.3% and 13.5%	19% and 14%	20.5% and 13.1%	> 7.50	–	–	–	–	–	–	–	–	–	–	–	–
O=C(c1cc(Cc2n[nH]c(=O)c3ccccc23)ccc1F)N1CCN(C(=O)C2CC2)CC1	102%	90% and 99.4%	101% and 109%	114% and 110%	118% and 119%	126% and 103%	< 5.00	–	–	–	–	–	–	–	–	–	–	–	–
O=c1[nH]cc(F)c(=O)[nH]1	99.2% and 100%	84.2% and 98.6%	99% and 94.5%	93.7% and 97%	108% and 102%	65.2% and 63%	< 5.00	–	–	–	–	–	–	–	–	–	–	–	–
